These results are taken from article PMC12540964 (AMB Express, 2025).

In one assay the target is elastase (Sus scrofa, UniProt P00772). As to the kind of experiment: Elastase inhibitory assay. As to conditions: 410 nm; for pIC50: Elastase IC50, N-succinyl-Ala-Ala-p-nitroanilide. The class given is biochemical. As to the method:
Then, 200 µL of an elastase solution prepared in Tris–HCl buffer (0.2 M, pH 8.0) was mixed with 50 µL of each sample. Following a 15-min incubation at 25 °C, 200 µL of N-succinyl-Ala-Ala-p-nitroanilide solution was added, and the reaction mixtures were homogenized. Absorbances were recorded at 410 nm after an additional 20-min incubation at 25 °C. The data obtained were used to determine the IC50 and to calculate the percent inhibition of elastase.

The subject of assay [1] is Staphylococcus aureus (ATCC 29213). In words: Microdilution method (MIC, MBC). The assay is classed as cell-based. As for the experimental part: (§1) The strains Escherichia coli (ATCC 25922), Pseudomonas aeruginosa NIH, Listeria monocytogenes (ATCC 13932), and Staphylococcus aureus (ATCC 29213) were used. After overnight incubation at 30 °C, the inhibition zone diameters (IZD) were measured in millimeters (mm). Next, the microdilution method served to assess the minimum inhibitory concentration (MIC) and minimum bactericidal concentration (MBC) (Bouyahya et al. [2020a], [b]).

Assay [2] has as its system Escherichia coli (ATCC 25922). As to the kind of experiment: Microdilution method (MIC, MBC). The assay is classed as cell-based. As to the method:
as §1

Assay [3] relates to Listeria monocytogenes (ATCC 13932). In words: Microdilution method (MIC, MBC). The class given is cell-based. As to conditions: for MBC/MIC: 1 suggests bactericidal; for MBC / MIC: Listeria monocytogenes. As for the experimental part:
as §1
A general note: Dilution methods test growth across graded concentrations, often in twofold steps.

Assay [4] concerns Pseudomonas aeruginosa NIH. As to the kind of experiment: Microdilution method (MIC, MBC). The class given is cell-based. As to conditions: for MBC/MIC: 1 suggests bactericidal; for MBC / MIC: Pseudomonas aeruginosa; for MBC: read-out: MBC (minimum bactericidal concentration); for MIC: read-out: MIC (minimum inhibitory concentration). As to the method:
as §1

The nature of assay [5]: ABTS radical scavenging activity. As for the experimental part: The ABTS cation radical was generated from the reaction between ABTS solution and potassium persulfate with Trolox as a positive control. The assay was performed in triplicate and expressed in IC50 (μg/mL) (El Omari et al. [2023]).
The next assay has as its target tyrosinase (Agaricus bisporus, UniProt C7FF04). Further details: method as in El Khoury et al. [2019]. As to conditions: carvacrol from Origanum EOs; ref El Khoury et al. [2019]; cited from earlier work.
Assay [6] is described as follows: Reducing ferric power test (FRAP). As to conditions: 700 nm. As for the experimental part: CEEO, carvacrol, menthol, and tricosane were mixed with phosphate buffer and potassium ferricyanide solution, incubated, and treated with trichloroacetic acid. After centrifugation, the upper layer was analyzed for absorbance (700 nm) with Trolox serving as a reference. The assay was done in triplicate, and the IC50 (μg/mL) was calculated (El Omari et al. [2023]).

In assay [7] the test system is Staphylococcus aureus (ATCC 29213). In words: Disk diffusion method (inhibition zone diameter). The assay is classed as cell-based. As to conditions: S. aureus, Gram-positive. As for the experimental part:
as §1
(In general: A growth-free zone around the sample is the usual read-out of agar diffusion tests.)

In assay [8] the test system is Escherichia coli (ATCC 25922). As to the kind of experiment: Disk diffusion method (inhibition zone diameter). As to conditions: E. coli, Gram-negative. The class given is cell-based. As to the method: as §1
Assay [9] has as its system Listeria monocytogenes (ATCC 13932). In words: Disk diffusion method (inhibition zone diameter). As to conditions: L. monocytogenes, Gram-positive. The class given is cell-based. As to the method: as §1
Assay [10] relates to Pseudomonas aeruginosa NIH. As to the kind of experiment: Disk diffusion method (inhibition zone diameter). The class given is cell-based. As to conditions: P. aeruginosa, Gram-negative. As to the method:
as §1

The next assay deals with T1, α-glucosidase (Saccharomyces cerevisiae, UniProt P53341).
T1 construct: purchased
T1 sequence (P53341 whole entry): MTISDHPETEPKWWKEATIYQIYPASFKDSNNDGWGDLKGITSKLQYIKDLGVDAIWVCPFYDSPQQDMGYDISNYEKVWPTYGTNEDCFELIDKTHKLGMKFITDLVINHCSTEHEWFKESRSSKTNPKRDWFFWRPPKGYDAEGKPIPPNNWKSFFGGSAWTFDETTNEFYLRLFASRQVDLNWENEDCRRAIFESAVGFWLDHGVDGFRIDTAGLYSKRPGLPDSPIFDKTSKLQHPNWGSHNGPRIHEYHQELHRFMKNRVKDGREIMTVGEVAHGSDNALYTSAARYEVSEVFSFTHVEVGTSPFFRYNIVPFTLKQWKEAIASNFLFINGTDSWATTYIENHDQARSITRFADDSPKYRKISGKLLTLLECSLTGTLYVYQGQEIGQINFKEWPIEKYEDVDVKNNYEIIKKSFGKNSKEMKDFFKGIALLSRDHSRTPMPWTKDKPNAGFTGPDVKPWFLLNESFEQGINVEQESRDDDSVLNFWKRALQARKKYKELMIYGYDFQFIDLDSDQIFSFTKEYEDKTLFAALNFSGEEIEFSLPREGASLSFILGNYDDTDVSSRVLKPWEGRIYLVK
In words: α-Glucosidase inhibitory test. The class given is biochemical. As to the method:
(§2) The α-glucosidase from Saccharomyces cerevisiae and the α-amylase from Bacillus licheniformis were also obtained from reliable commercial sources. Additional reagents were carefully selected from reputable suppliers. Mueller–Hinton agar was sourced from Biokar in Beauvais, France. All other chemicals used are of analytical grade.
The inhibition of α-glucosidase action was assessed using the pNPG substrate as previously detailed (Bouyahya et al. [2021]). A mixture of 200 μL of the samples and 100 μL SPB (0.1 M & pH = 6.7), mixed with α-glucosidase (0.1 U/mL), underwent incubation at 37 °C/10 min. Next, 200 μL of pNPG (1 mM) solution in SPB (0.1 M & pH = 6.7) was added, then incubated at 37 °C/30 min. The measurement of α-glucosidase inhibition was done by measuring the OD (405 nm) after adding 1 mL of Na2CO3 (0.1 M).

A further assay deals with T2, α-amylase (Bacillus licheniformis, UniProt P06278).
T2 construct: purchased
T2 sequence (P06278 30-512): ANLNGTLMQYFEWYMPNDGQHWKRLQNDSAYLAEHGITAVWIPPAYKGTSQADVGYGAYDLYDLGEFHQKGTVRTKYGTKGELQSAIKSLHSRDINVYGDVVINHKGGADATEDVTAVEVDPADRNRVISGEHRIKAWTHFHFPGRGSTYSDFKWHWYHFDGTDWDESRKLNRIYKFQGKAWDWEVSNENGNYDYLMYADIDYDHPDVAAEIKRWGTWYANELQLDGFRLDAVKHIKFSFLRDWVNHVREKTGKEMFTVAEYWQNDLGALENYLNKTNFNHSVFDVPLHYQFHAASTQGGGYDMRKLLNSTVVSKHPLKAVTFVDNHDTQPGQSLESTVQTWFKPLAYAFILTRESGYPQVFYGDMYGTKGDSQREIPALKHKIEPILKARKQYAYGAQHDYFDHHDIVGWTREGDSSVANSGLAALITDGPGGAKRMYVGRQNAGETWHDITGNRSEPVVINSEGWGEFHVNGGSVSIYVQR
As to the kind of experiment: α-Amylase inhibitory test. The assay is classed as biochemical. As to the method: as §2
Initially, 250 μL of each sample was mixed with 250 μL of sodium phosphate buffer (SPB) (0.02 M & pH = 6.9) and α-amylase enzyme (240 U/mL). The blend was then incubated at 37 °C/20 min. Then, a 1% starch solution (250 μL) in SPB was added, followed by incubation at 37 °C/15 min. Thereafter, 1 mL of dinitrosalicylic acid (DNS) was also added, and the mix was heated for 10 min (Bouyahya et al. [2019a], [b]; Omari et al. [2023]). The solution was then diluted with 2 mL of sterile water, and the OD (540 nm) was measured. […] The % of inhibition was calculated using the formula: [drawing 1]

A further assay in a line: DPPH test. As to conditions: radical scavenging, 30 min, 517 nm. As to the method: This assay used DPPH radical to assess the free radical-scavenging ability. Samples dissolved in methanol were mixed with a methanolic solution of DPPH and incubated, in triplicate, at ambient temperature for 30 min (El Omari et al. [2023]). Absorbance was read at 517 nm, and the percentage of DPPH radical scavenging and the inhibition in IC50 (μg/mL) were calculated. Trolox served as a positive control.
In general terms: DPPH is a stable violet radical that fades when it is reduced.

Setting [11] is: ATCC29213, S. aureus, read-out: MBC (minimum bactericidal concentration).
Setting [12] is: ATCC29213, S. aureus, read-out: MIC (minimum inhibitory concentration).
The mark [13] stands for this setting: ATCC25922, E. coli, read-out: MBC (minimum bactericidal concentration).
The mark [14] stands for this setting: ATCC25922, E. coli, read-out: MIC (minimum inhibitory concentration).
The mark [15] stands for this setting: ATCC13932, L. monocytogenes, read-out: MBC (minimum bactericidal concentration).
[16] abbreviates: ATCC13932, L. monocytogenes, read-out: MIC (minimum inhibitory concentration).

What is called pIC50 is the IC50 on a negative log10 scale, so that one unit is a factor of ten. A word on the IC50: it is the concentration that inhibits the measured activity by half.

pIC50: −log10 of the molar value. Converted amounts (≈) assume the structure as drawn. Like-named read-outs stand apart in the source and are kept apart here. Marks after values point to notes of the source that are not given here.

Sequence of elastase (P00772 27-266): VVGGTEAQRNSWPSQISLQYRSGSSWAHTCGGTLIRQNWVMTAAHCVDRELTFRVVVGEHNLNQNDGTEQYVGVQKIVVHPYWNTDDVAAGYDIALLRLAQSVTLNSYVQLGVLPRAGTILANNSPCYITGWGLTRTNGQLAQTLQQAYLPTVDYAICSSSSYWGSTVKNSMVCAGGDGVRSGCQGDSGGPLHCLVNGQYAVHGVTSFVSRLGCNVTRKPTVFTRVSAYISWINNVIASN
Sequence of tyrosinase (C7FF04 1-392): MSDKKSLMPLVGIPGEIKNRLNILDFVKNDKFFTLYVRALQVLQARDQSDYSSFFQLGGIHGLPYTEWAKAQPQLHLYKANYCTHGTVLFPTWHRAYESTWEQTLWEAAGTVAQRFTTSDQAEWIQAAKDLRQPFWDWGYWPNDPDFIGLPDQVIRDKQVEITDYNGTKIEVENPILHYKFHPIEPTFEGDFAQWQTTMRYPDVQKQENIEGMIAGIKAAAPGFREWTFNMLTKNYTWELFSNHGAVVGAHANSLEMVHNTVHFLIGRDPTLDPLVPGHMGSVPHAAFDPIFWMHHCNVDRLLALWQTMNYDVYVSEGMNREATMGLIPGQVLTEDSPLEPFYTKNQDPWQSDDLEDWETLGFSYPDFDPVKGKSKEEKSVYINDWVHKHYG

Regarding `Cc1ccc(C(C)C)cc1O` [Carvacrol, carvacrol], the values for the negative logarithm of the IC50 (pIC50) on elastase, against α-glucosidase and against α-amylase were 3.08, 2.87 and 2.42, respectively. The MBC was determined as 0.025 µg/mL (≈ 0.166 µM) in assay [1] (ATCC29213, read-out: MBC (minimum bactericidal concentration)); 0.25 µg/mL (≈ 1.66 µM) in assay [2] (ATCC25922, read-out: MBC (minimum bactericidal concentration)); 0.125 µg/mL (≈ 0.832 µM) in assay [3] (ATCC13932, read-out: MBC (minimum bactericidal concentration)); 0.5 µg/mL (≈ 3.33 µM) in [4]. The MIC in assay [1] (ATCC29213, read-out: MIC (minimum inhibitory concentration)) amounted to 0.0125 µg/mL (≈ 0.0832 µM); in assay [2] (ATCC25922, read-out: MIC (minimum inhibitory concentration)), 0.125 µg/mL (≈ 0.832 µM); in [3] (ATCC13932, read-out: MIC (minimum inhibitory concentration)), 0.125 µg/mL (≈ 0.832 µM); in assay [4], 0.5 µg/mL (≈ 3.33 µM). Also, the MBC/MIC in assay [3] (L. monocytogenes) and in [4] (P. aeruginosa) was 1 in each case. For the same compound, the “ABTS IC50” value in assay [5] is 81.41 ± 4.31^b µg/mL. Besides, the tyrosinase inhibition on tyrosinase is 56.55%. The “FRAP IC50” value in assay [6] was 59.96 ± 2.60^f µg/mL. Further, the “IZD (inhibition zone diameter)” value in [7] was 35.33 ± 1.52^a mm; in assay [8], 31.33 ± 2.51^b mm; in assay [9], 33 ± 2.64^a mm; in [10], 29 ± 2.64^c mm. Moreover, in “DPPH test”, the “DPPH IC50” value is on record as 48.06 ± 4.31^h µg/mL.
`O=C(N[C@H](CO)[C@H](O)c1ccc([N+](=O)[O-])cc1)C(Cl)Cl` [Chloramphenicol, reference compound]: the MBC in assay [1] (setting [11]) was found to be 32 µg/mL (≈ 99 µM); in [2] (setting [13]), 32 µg/mL (≈ 99 µM); in [3] (setting [15]), 32 µg/mL (≈ 99 µM); in assay [4] (P. aeruginosa), 64 µg/mL (≈ 198 µM). Moreover, the MIC in assay [1] (setting [12]) was determined as 8 µg/mL (≈ 24.8 µM); in [2] (setting [14]), 8 µg/mL (≈ 24.8 µM); in assay [3] (setting [16]) it was 16 µg/mL (≈ 49.5 µM); in [4] (P. aeruginosa) it was 64 µg/mL (≈ 198 µM).
As for `CC1CCC(C(C)C)C(O)C1` (stereo not shown) [Menthol, menthol], the negative logarithm of the IC50 (pIC50) against elastase is 3.14; on α-glucosidase, 2.93; on α-amylase, 2.52. Besides, the MBC was determined as 1 µg/mL (≈ 6.4 µM) in [1] (setting [11]), 2 µg/mL (≈ 12.8 µM) in [2] (setting [13]), 0.5 µg/mL (≈ 3.2 µM) in assay [3] (setting [15]) and 1 µg/mL (≈ 6.4 µM) in assay [4] (P. aeruginosa). In addition, the MIC amounted to 0.5 µg/mL (≈ 3.2 µM) in [1] (setting [12]), 0.5 µg/mL (≈ 3.2 µM) in assay [2] (setting [14]), 0.25 µg/mL (≈ 1.6 µM) in assay [3] (setting [16]) and 0.25 µg/mL (≈ 1.6 µM) in assay [4] (P. aeruginosa). In assay [5], the “ABTS IC50” value is recorded as 71.76 ± 3.16^a µg/mL. Further, in [6], the “FRAP IC50” value is given as 57.93 ± 15.63^f µg/mL. The “IZD (inhibition zone diameter)” value in assay [7] is 32 ± 2.64^a mm; in assay [8], 14 ± 2^a mm; in [9] it was 26.33 ± 1.52^b mm; in [10], 18 ± 4.5^b mm. Besides, the “DPPH IC50” value in the assay “DPPH test” is 58.89 ± 4.03^a µg/mL.
For `CCCCCCCCCCCCCCCCCCCCCCC` [Tricosane, tricosane], the half-maximal inhibitory concentration (IC50) at elastase (N-succinyl-Ala-Ala-p-nitroanilide, read-out: Elastase IC50 (converted)) is 384 µM. Further, the MBC in assay [1] (setting [11]) was found to be 0.5 µg/mL (≈ 1.54 µM); in assay [2] (setting [13]), 1 µg/mL (≈ 3.08 µM); in [3] (setting [15]), 0.25 µg/mL (≈ 0.77 µM); in assay [4] (P. aeruginosa) it was 0.5 µg/mL (≈ 1.54 µM). The MIC in assay [1] (setting [12]) came out at 0.125 µg/mL (≈ 0.385 µM); in [2] (setting [14]), 0.25 µg/mL (≈ 0.77 µM); in [3] (setting [16]), 0.25 µg/mL (≈ 0.77 µM); in assay [4] (P. aeruginosa), 0.5 µg/mL (≈ 1.54 µM). The MBC/MIC in [3] (L. monocytogenes) and in assay [4] (P. aeruginosa) was 1 throughout. Besides, the “ABTS IC50” value in assay [5] was found to be 120.34 ± 2.97 µg/mL. Further, the “FRAP IC50” value in assay [6] is 103.9 ± 2.48 µg/mL. Besides, the “IZD (inhibition zone diameter)” value in [7] is listed as 29 ± 4.58^a mm; in assay [8], 20.67 ± 2.08^C mm; in assay [9], 31.67 ± 4.04^b mm; in assay [10], 17 ± 2.51^b mm. Moreover, the pIC50 is 3.23 against α-glucosidase and 2.93 against α-amylase. Besides, the “DPPH IC50” value in the assay “DPPH test” is reported as 91.03 ± 0.3^b µg/mL.
Consider `Cc1c(C)c2c(c(C)c1O)CCC(C)(C(=O)O)O2` (stereo not shown) [Trolox, reference compound], for which the “ABTS IC50” value in assay [5] was 55.25 ± 4.19^b µg/mL. In addition, the “FRAP IC50” value in [6] was 54.74 ± 3.85^f µg/mL. In “DPPH test”, the “DPPH IC50” value was 34.12 ± 2.13^h µg/mL.
